These results are taken from BindingDB's records for doi:10.1021/jm0510530 (Universit&#224, 2006).

A word on the EC50: it is the concentration needed to bring the measured effect to its halfway point.

Assay [1] is described as follows: Vasodilator activity assessed as ability to relax phenylephrine-induced contraction of Wistar rat aortic strips.
A short description of assay [2]: Vasodilator activity assessed as ability to relax phenylephrine-induced contraction of Wistar rat aortic strips in presence of 1 uM ODQ.

In the case of `Cc1c(C)c2c(c(C)c1O)CCC(C)(COCCCO[N+](=O)[O-])O2` (centres undefined) [2,5,7,8-Tetramethyl-2-(3-nitrooxy-propoxymethyl)-chroman-6-ol], the EC50 was 1.2 µM in assay [1] and 10 µM in assay [2].

For `CC(C)(C)c1cc(CCCO[N+](=O)[O-])cc(C(C)(C)C)c1O` [2,6-Di-tert-butyl-4-(3-nitrooxy-propyl)-phenol], the EC50 in assay [1] is 40 µM.

Regarding `Cc1c(C)c2c(c(C)c1O)CCC(C)(COc1no[n+]([O-])c1S(=O)(=O)c1ccccc1)O2` (centres undefined) [2-(4-Benzenesulfonyl-5-oxy-furazan-3-yloxymethyl)-2,5,7,8-tetramethyl-chroman-6-ol], the EC50 in assay [1] was 0.044 µM; in assay [2], 0.67 µM.

For the compound `COc1cc(CCCO[N+](=O)[O-])cc(OC)c1O` [3-(4-hydroxy-3,5-dimethoxyphenyl)propyl nitrate], the EC50 in assay [1] worked out at 4.3 µM.

As for `CC(C)(C)c1cc(CCCOc2no[n+]([O-])c2S(=O)(=O)c2ccccc2)cc(C(C)(C)C)c1O` [4-(3-(3-benzenesulfonylfuroxan-4-yloxy)propyl)-2,6-di-tertbutylphenol], the EC50 was found to be 0.11 µM in assay [1] and 4.8 µM in assay [2].

`COc1cc(CCCOc2no[n+]([O-])c2S(=O)(=O)c2ccccc2)cc(OC)c1O` [4-(3-(3-benzenesulfonylfuroxan-4-yloxy)propyl)-2,6-dimethoxyphenol]: the EC50 in assay [1] was found to be 0.022 µM; in assay [2], 0.5 µM.

For `O=S(=O)(c1ccccc1)c1c(OCCCc2ccc(O)cc2)no[n+]1[O-]` [4-(3-(3-benzenesulfonylfuroxan-4-yloxy)propyl)phenol], the concentration for a half-maximal effect (EC50) amounted to 0.012 µM in assay [1] and 0.36 µM in assay [2].

On to `O=[N+]([O-])OCCCc1ccc(O)cc1` [4-(3-Nitrooxy-propyl)-phenol], for which the EC50 in assay [1] was determined as 1 µM.

As for `CN(CCCc1cc(C(C)(C)C)c(O)c(C(C)(C)C)c1)Cc1no[n+]([O-])c1C(N)=O` [4-((N-(3-(3,5-di-tert-butyl-4-hydroxyphenyl)propyl)-N-methylamino)methyl)furoxan-3-carboxamide], the EC50 turned out to be 0.41 µM in assay [1] and 7.4 µM in assay [2].

As to `Cc1c(C)c2c(c(C)c1O)CCC(C)(CN(C)Cc1no[n+]([O-])c1C(N)=O)O2` (centres undefined) [4-((N-((6-hydroxy-2,5,7,8-tetramethylchroman-2-yl)methyl)-N-methylamino)methyl)furoxan-3-carboxamide], the EC50 in assay [1] was determined as 1.5 µM; in assay [2] it was 19 µM.

Turning to `CN(C)Cc1no[n+]([O-])c1C(N)=O` [4-dimethylaminomethyl-2-oxy-furazan-3-carboxylic acid amide], in assay [1], the EC50 amounted to 3.1 µM.

`NC(=O)c1c(CO)no[n+]1[O-]` [4-hydroxymethyl-2-oxy-furazan-3-carboxylic acid amide]: the EC50 in assay [1] turned out to be 6.3 µM.
